The numbers were not newly measured in patent US8017624B2, “Fused aminopiperidines as dipeptidyi peptidase-IV inhibitors for the treatment or prevention of diabetes” (Merck Sharp & Dohme Corp., priority 2005, dated 2011), which cites them from elsewhere.

Data set [1] has as its system cardiac allograft survival. To be noted: rats; Transplantation 63: 1495-1500 (1997).
The target of data set [2] is T1, DPP-IV (Homo sapiens, UniProt P27487).
T1 construct: GRF is rapidly degraded in plasma to GRF[3-44]

Data set [3] concerns hematopoiesis. To be noted: mouse, cyclophosphamide-induced neutropenia; WO 99/56753.

T1 sequence (P27487 whole entry, species assumed): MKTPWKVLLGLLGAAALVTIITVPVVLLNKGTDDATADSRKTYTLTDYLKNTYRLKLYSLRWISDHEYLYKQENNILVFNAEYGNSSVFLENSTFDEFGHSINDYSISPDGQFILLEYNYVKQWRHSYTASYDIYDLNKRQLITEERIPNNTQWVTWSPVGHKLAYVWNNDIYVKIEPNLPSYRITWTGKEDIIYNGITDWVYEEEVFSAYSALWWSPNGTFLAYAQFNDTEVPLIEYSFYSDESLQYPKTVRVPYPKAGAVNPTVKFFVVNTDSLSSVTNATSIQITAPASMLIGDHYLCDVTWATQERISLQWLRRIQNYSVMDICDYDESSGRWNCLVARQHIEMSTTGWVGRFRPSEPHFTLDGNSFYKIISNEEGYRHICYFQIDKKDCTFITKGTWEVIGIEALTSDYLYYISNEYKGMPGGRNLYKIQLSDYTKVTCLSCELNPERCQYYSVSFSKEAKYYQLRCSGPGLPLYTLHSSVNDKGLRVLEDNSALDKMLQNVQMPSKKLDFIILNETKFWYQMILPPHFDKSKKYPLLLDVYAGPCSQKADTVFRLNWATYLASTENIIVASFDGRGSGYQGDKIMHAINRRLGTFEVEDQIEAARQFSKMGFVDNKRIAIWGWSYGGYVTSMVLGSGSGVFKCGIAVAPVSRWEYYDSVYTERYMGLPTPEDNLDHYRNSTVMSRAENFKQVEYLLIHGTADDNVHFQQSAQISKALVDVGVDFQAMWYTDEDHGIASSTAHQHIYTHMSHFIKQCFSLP

As for `CC(C)N1CCC(c2ccccc2)(c2ccccc2)CC1` [Prodipine, Pro-Pro-diphenyl-phosphonate], the cardiac allograft survival entry in data set [1] is given as “double cardiac allograft survival in rats from day 7 to day 14”.
Consider `CC[C@H](C)[C@H](N)C(=O)N1CCC[C@H]1C(=O)N[C@H](C(=O)O)[C@@H](C)CC` [diprotin A], for which the “degradation of GRF in plasma to GRF[3-44]” value in data set [2] is on record as “prevented”.
With `CC(C)[C@H](N)C(=O)N1CCC[C@H]1B(O)O` [Val-Boro-Pro], in data set [3], the effect on hematopoiesis entry is on record as “stimulated hematopoiesis”.
